Experimental data as given in patent publication US5639786A (priority 1994, dated 1997).
≈ marks a conversion by molar mass, not a printed value.

Columns and labels:
[1] = system: Vibrio cholerae neuraminidase; conditions: Meindl and Tuppy 1969; cited from earlier work
[2] = target: N2 influenza neuraminidase (Influenza A virus (A/Aichi/2/1968(H3N2)), UniProt Q75VQ4); conditions: read-out: NA1 (μg/ml), virion X31, MUN substrate, pH 6.5, 15 minutes at 37° C.
[3] = system: influenza A/Singapore/1/57 (H2N2); test: microbe, parasite or virus in culture; type: cell-based; conditions: H2N2, MDCK, 72 h, read-out: I50 Plaque Assay (μg/ml) Flu A
[4] = system: influenza B/Victoria/102/85; test: Inhibition of influenza virus replication in vitro, plaque reduction in MDCK cells (Flu B); type: cell-based; conditions: 72 h, influenza B/Victoria/102/85, MDCK cells, 3 days, read-out: I50 Plaque Assay (μg/ml) Flu B
[5] = prior art; cited from earlier work
[6] = system: influenza and parainfluenza viruses; conditions: Palese et al., Virology 1974; cited from earlier work

Sequence of N2 influenza neuraminidase (Influenza A virus (A/Aichi/2/1968(H3N2)), UniProt Q75VQ4) (Q75VQ4 whole entry, looked up): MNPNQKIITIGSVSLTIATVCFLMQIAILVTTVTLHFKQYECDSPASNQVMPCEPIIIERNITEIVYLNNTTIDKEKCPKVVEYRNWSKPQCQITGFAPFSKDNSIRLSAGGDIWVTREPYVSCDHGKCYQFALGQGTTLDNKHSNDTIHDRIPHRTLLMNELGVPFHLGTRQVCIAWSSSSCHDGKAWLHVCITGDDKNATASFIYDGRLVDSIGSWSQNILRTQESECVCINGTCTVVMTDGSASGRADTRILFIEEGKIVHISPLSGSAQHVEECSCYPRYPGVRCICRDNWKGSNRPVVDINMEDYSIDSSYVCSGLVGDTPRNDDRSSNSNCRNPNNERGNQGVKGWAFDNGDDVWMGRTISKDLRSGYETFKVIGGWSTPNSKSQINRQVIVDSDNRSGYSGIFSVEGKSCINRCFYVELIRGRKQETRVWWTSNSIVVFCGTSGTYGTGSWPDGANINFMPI

SMILES: CC(=O)N[C@H]1[C@H]([C@H](O)[C@H](O)CO)OC(C(=O)O)C[C@@H]1O (some centres unmarked) [2-deoxy-N-acetylneuraminic acid]
- inhibition of Vibrio cholerae neuraminidase [1]: did not inhibit

SMILES: CC(=O)N[C@H]1[C@H]([C@H](O)[C@H](O)CO)OC(C(=O)O)=C[C@@H]1NC(=N)NN [Example 1, 5-(Acetylamino)-4-[[amino(aminoimino)methyl]amino]-2,6-anhydro-3,4,5-trideoxy-D-glycero-D-galacto-non-2-enonic acid]
- IC50 [2]: 3740 nM
- IC50 [3]: 2.9 µg/mL (≈ 8.35 µM)
- IC50 [4]: 3 µg/mL (≈ 8.64 µM)

SMILES: CC(=O)N[C@H]1[C@H]([C@H](O)[C@H](O)CO)OC(C(=O)O)=C[C@@H]1NC(=N)NO [Example 2, 5-(Acetylamino)-4-[[amino(hydroxyimino)methyl]amino]-2,6-anhydro-3,4,5-trideoxy-D-glycero-D-galacto-non-2-enonic acid]
- IC50 [2]: 1720 nM
- IC50 [3]: 0.1 µg/mL (≈ 0.287 µM)
- IC50 [4]: < 0.1 µg/mL

SMILES: CC(=O)N[C@H]1[C@H]([C@H](O)[C@H](O)CO)OC(C(=O)O)=C[C@@H]1NC(N)=N[N+](=O)[O-] [Example 4, 5-(Acetylamino)-4-[[amino(nitroimino)methyl]amino]-2,6-anhydro-3,4,5-trideoxy-D-glycero-D-galacto-2-enonic acid]
- IC50 [4]: 24 µg/mL (≈ 63.6 µM)

SMILES: CCOC(=O)N=C(N)N[C@H]1C=C(C(=O)O)O[C@@H]([C@H](O)[C@H](O)CO)[C@@H]1NC(C)=O [Example 5]
- IC50 [4]: 0.6 µg/mL (≈ 1.48 µM)

SMILES: O=C(O)C1=CC(O)C(NC(=O)C(F)(F)F)C(C(O)C(O)CO)O1 (centres unmarked) [FANA, 2-deoxy-2,3-dehydro-N-trifluoroacetyl-neuraminic acid]
- antiviral activity in vivo [5]: inactive in vivo
- inhibition of multi-cycle replication of influenza and parainfluenza viruses in vitro [6]: inhibits multi-cycle replication
